{"source": "paper PMC5104457", "about": "“ATP-Competitive MLKL Binders Have No Functional Impact on Necroptosis” (PLoS ONE, 2016)", "key": {"[1]": {"tested_on": "RIPK3 phosphorylation of MLKL in 293T cells", "test": "MLKL phosphorylation assay (MSD), RIPK3-dependent phospho Ser358", "assay_type": "cell-based, human", "details": "293T cells with GFP-MLKL and RIPK3-mCherry, 30 min compound, normalized to DMSO", "method": "The cDNA clones of human MLKL (RC213152) and human RIPK3 (RC209549) were purchased from Origene. To generate GFP-MLKL and RIPK3-mCherry, coding sequences of the corresponding cDNA sequences were PCR amplified and cloned into Biogen’s mammalian expression vector.\n293T cells grown in 10 cm plates were transfected with GFP-MLKL alone or both GFP-MLKL and RIPK3-mCherry plasmids. After 24 hours, cells were harvested and replated into poly D lysine coated 96W plate with 20,000 cells/ml. Four hours later, cells were treated with MLKL compounds for 30 min and incubated at 37°C. Thirty minutes later, the media was removed and cells were lysed in 150μl of Cell lysis buffer (Cell Signaling, MA) containing both protease and phosphatase inhibitors. The lysates were transferred to 96 well MSD plates (Meso Scale Discovery, MD) that were precoated with anti-mouse MLKL antibody H00197259-M02, 3B2, Novus Biologicals, CO), and incubated overnight at 4°C. After washing the plates three times with 1x MSD wash buffer (50mM TRIS-HCl, 150mM NaCl, 0.02% Tween 20, pH7.5), 100 μl of 0.5μg/ml of rabbit-anti-MLKL phospho Ser358 (Abcam AB187091) was added to each well. The plates were incubated for 2 hours at room temperature. After three washes with MSD wash buffer, 100 μ l of 0.5ug/ml of SULFO-tag labeled anti-rabbit IgG was added to each well and incubated for 1 hour at room temperature. After three washes, 1x Read bufferT (Meso Scale Discovery, MD) was added and the electrochemiluminescence (ECL) was measured with a MSD Sector Imager 600."}, "[2]": {"biological_target": "T1, pseudokinase MLKL-1 (Homo sapiens, UniProt Q8NB16)", "T1 construct": "sub-cloning residues 191 to 471 of the pseudokinase domain of human MLKL cDNA; His6 (thrombin cleavable) (N); made in house; host or cells: Escherichia coli BL21 (DE3)", "T1 sequence (Q8NB16 191-471)": "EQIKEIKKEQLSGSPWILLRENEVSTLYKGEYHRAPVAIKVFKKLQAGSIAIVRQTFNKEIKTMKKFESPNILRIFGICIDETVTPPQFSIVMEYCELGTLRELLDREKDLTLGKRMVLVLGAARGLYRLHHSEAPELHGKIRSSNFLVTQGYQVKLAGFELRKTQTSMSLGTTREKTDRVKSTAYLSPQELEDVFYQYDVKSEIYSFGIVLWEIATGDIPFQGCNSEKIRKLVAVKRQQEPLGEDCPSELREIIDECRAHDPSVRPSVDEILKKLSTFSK", "test": "Differential scanning fluorimetry (thermal shift), MLKL pseudokinase domain", "assay_type": "binding", "details": "10 μM compound, 1 μM protein, average of triplicates; read-out: MLKL Pseudo-kinase thermal shift at 10 μM", "excerpt": "MLKL-1 was constructed by sub-cloning residues 191 to 471 of the pseudokinase domain of human MLKL cDNA into a pET15b vector with a thrombin cleavable N-terminal six histidine fusion tag (His-MLKL-1). MLKL-2 had the same protein boundaries and fusion tag system as MLKL-1 but the dual mutations E366A and K367A were introduced using site directed mutagenesis and was expressed in the same vector (His-MLKL-2).\n(§1) To measure the thermal stabilization of the proteins upon compound binding we employed differential scanning fluorimetry (DSF). The kinase domain of RIPK1 and the N-terminal domain HSP90α were expressed and purified as previously described. The pseudokinase MLKL-1, RIPK1 and Hsp90 were melted at 1μM final concentrations in 25mM HEPES pH 8.0, 250mM NaCl and 2.5mM DTT. Compounds were added to a final concentration of 10 μ M with a final DMSO concentration of 5%. The complexes were incubated on ice for 30 minutes. Protein Thermal Shift dye (Life Technologies) was added to 1X. The fluorescence intensities were measured using a Quantstudio real-time PCR system (Life Technologies) with excitation at 470 nm and emission at 586 nm. The samples, measured in triplicate, were heated from 25 to 85°C with a heating rate of […]."}, "[3]": {"tested_on": "403 non-mutant kinases", "test": "DiscoverX kinase selectivity panel", "assay_type": "binding", "details": "1 μM compound", "excerpt": "We then characterized several compounds that were expected to bind to MLKL across a broad panel of 403 non-mutant kinases at DiscoverX."}, "[4]": {"biological_target": "T2, kinase domain of RIPK1 (Homo sapiens, UniProt Q13546)", "T2 construct": "The kinase domain of RIPK1; made in house", "T2 sequence (Q13546 17-289 limits assumed)": "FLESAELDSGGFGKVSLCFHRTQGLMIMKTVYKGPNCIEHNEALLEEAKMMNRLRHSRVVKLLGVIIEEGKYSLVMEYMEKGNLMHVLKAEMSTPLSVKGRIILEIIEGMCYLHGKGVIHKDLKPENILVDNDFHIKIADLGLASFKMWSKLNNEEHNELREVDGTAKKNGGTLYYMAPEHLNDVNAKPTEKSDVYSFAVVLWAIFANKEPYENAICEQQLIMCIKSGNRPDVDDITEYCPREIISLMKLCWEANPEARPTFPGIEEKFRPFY", "test": "Differential scanning fluorimetry (thermal shift), RIPK1 kinase domain", "assay_type": "binding", "details": "10 μM compound, 1 μM protein, average of triplicates", "method": "as §1"}, "[5]": {"tested_on": "FADD (-/-) Jurkat cells", "test": "Necroptosis assay: rescue from TNF-α induced cell death", "assay_type": "cell-based", "details": "Homo sapiens; for IC50: read-out: Necroptosis cell IC50", "method": "Necroptosis assays were performed at Charles River Laboratories (United Kingdom) and at Biogen. […] On the day of the experiment, cells were counted using Nexcelom Bioscience Cell Meter Vision and pelleted by centrifugation. Cell pellets were resuspended in fresh medium at 500,000 cells per mL and transferred to assay-ready compound plates prepared in 384-well white TC plates (Greiner #781080) at 20μl cells per well. Cells and compound were incubated at room temperature for 30 minutes followed by +/- stimulation with 15ng/ml TNF-α (Cell signalling Technologies #8902LF) overnight at 37°C. In the morning, plates were equilibrated to room temperature for 30 minutes and 25μl of CellTiter-Glow (CellTiter-Glo 2.0 Assay, Promega # G9243) diluted 1:4 in PBS was added to each well and allowed to incubate for 10 minutes at room temperature. Luminescence was read on an Envision plate reader (Perkin Elmer).\nTNF-α added to these cells induces necroptosis or cell death. The term “Rescue” refers to the ability of a compound to prevent loss of cell viability in the presence of TNF. Definitions of the presence or absence of compound or TNF stimulation in the wells that were used to calculate degree of rescue or viability is defined in Table 1.\n100% percent rescue is defined as the value of the “no TNF” wells minus the value of wells treated with “TNF”.\nPercent Rescue is then the ratio of the intensity value of the experimental “well” minus the value of “TNF” treated wells divided by the overall difference between the value of “no TNF” treated wells and the value of “TNF” treated wells.\n%rescue=((well - TNF)/(no TNF - TNF))x100"}}, "note": "Like-named read-outs stand apart in the source and are kept apart here.", "data": [{"compound": "CN(c1ccc(NC(=O)Nc2ccc(OC(F)(F)F)cc2)cc1)c1ccnc(Nc2cccc(S(N)(=O)=O)c2)n1", "note": "[cpd 1, reference compound]", "values": [{"measurement": "effect on RIPK3-dependent phosphorylation of MLKL (phospho Ser358, in words)", "setting": "[1]; listed as Cpd 1", "result": "does not impact its phosphorylation"}, {"measurement": "ΔTm at 10 µM", "setting": "[2]", "result": "5 to 6", "unit": "°C"}, {"measurement": "number of kinases inhibited out of 403", "setting": "[3]", "result": 56}, {"measurement": "ΔTm at 10 µM", "setting": "[4]", "result": "5 to 6", "unit": "°C"}, {"measurement": "IC50", "setting": "[5]; Jurkat", "result": 1850, "unit": "nM"}, {"measurement": "EC50", "setting": "[5]; FADD deficient Jurkat cells, TNF stimulation", "result": 1850, "unit": "nM"}]}, {"compound": "Nc1nccnc1C(=O)O[C@@H](C(=O)Nc1ccc(F)cc1)c1ccccc1", "note": "[cpd 4, 3-Amino-pyrazine-2-carboxylic acid (R)-(4-fluorophenylcarbamoyl)-phenyl-methyl ester]", "values": [{"measurement": "effect on RIPK3-dependent phosphorylation of MLKL (phospho Ser358, in words)", "setting": "[1]", "result": "does not impact its phosphorylation"}, {"measurement": "ΔTm at 10 µM", "setting": "[2]", "result": 4, "unit": "°C"}, {"measurement": "number of kinases inhibited out of 403", "setting": "[3]", "result": 1}, {"measurement": "number of kinases inhibited out of 403", "setting": "[3]; listed as Cpd 4", "result": "none"}, {"measurement": "ΔTm at 10 µM", "setting": "[4]", "result": -0.15, "unit": "°C"}, {"measurement": "IC50", "setting": "[5]; FADD deficient Jurkat cells, TNF-α 15 ng/ml overnight, average of duplicates", "result": "> 40000", "unit": "nM"}]}]}
